Here are results for 10 compounds from patent publication US20240316079A1, “USE OF AKR1C3-ACTIVATED COMPOUND” (OBI PHARMA, INC., priority 2021, published 2024).

In general, Km refers to the concentration of substrate that gives half-maximal velocity. One may read the IC50 as the concentration needed to halve the response being measured. Broadly, the TGI is the reduction of tumour growth relative to the control group. A lower TGI goes with little slowing of growth.

In one assay the target is T1, recombinant human AKR1C3 (Homo sapiens, UniProt P42330).
T1 construct: purchased Abcam (Cambridge, MA)
T1 sequence (P42330 1-323): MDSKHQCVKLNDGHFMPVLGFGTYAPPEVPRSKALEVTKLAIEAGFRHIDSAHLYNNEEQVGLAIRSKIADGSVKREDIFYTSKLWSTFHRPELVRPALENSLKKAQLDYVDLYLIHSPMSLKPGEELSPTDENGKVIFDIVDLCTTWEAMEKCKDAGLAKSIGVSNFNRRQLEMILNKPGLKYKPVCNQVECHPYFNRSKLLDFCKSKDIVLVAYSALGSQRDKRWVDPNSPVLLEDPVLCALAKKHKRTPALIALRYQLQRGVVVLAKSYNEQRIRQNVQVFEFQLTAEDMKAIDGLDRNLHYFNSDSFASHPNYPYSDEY
Put plainly: Kinetic analysis of AKR1C3 towards various substrates (NADPH absorbance 340 nm). Particulars: substrate of AKR1C3, 25° C., triplicate. The format is biochemical. How it is done: The reaction was incubated at 25° C. and terminated at various time points by adding acetonitrile and methanol (at a ratio of 9 to 1) and subjected for LC-MS/MS analysis. For enzyme kinetic analysis, the activity was determined with a SpectraMax M2^e spectrophotometer (Molecular Devices, LLC, San Jose, CA) by measuring the decrease in absorbance of the NADPH at 340 nm (E=6270 M^−1 cm^−1). After the initiation of the reaction by addition of substrates, the reactions were monitored at 30 s intervals at 25° C. The non-substrate reaction rate was also monitored as background and its slope was used to determine the initial velocity of the reaction. The kinetic data reported were the average of triplicate measurements.

Assay [1] relates to H460 cells. Put plainly: Cytotoxicity in H460 cells in the absence or presence of AKR1C3 inhibitor 3021. The conditions noted are these: Homo sapiens, NCI-H460, 2 h, read-out: IC50 (cytotoxicity).
Method: Exponentially growing cells were seeded 24 hours before the addition of test compounds. After addition of test compounds, the plates were incubated for the indicated hours at 37° C. in a standard tissue culture incubator. At the end of the experiment, the viable cells were detected using either a CellTiter Glo (CTG) assay kit or AlamarBlue^(28,29). […] For 3021 experiments, cells were pretreated with 3 μM of 3021 for 2 h prior to compound treatment under air. IC50 was calculated as described above.
Assay [2] relates to H460 cells. Put plainly: Comet assay for DNA cross-linking. The format is cell-based, human. How it is done: After seeding cells for 24 hours, the test articles were added at the indicated concentrations and incubated for 2 hours. Cells were washed twice to remove compound completely. 20 μmol/L of bleomycin was added and incubated for 1 hour under air to induce DNA strand breaks following 2 h cell resting. After washing twice with PBS, comet assay was conducted using a single-cell electrophoresis system from Trevigen (Gaithersburg, MD). The data were analyzed using Comet Assay IV software from Perceptive Instruments (29).
To evaluate whether 3424 cross-linked DNA, a direct biochemical assay for DNA cross-linking, the single-cell electrophoresis-based comet assay was employed using H460 cells. In this assay, the racemic mixture, 2870, was used. […] Bleomycin was used to induce DNA strand breaks which was evident by increased tail moment to 35. 2870-induced DNA cross-linking was tested using three concentrations under identical conditions that were used for bleomycin. Compound 2870-induced concentration-dependent DNA-crosslinking was evident by a decreased tail moment from 36 to 1.6.

For another assay, the system named is SNU-16 xenograft. Particulars: 5-FU 30 mg/kg IP twice a week. The protocol: (§1) Death and observed clinical signs were recorded on the basis of the numbers of animals within each subset.
The subject of another assay is A498 xenograft. The protocol: as §1
The test system of assay [3] is H460 subcutaneous xenograft. The format is in vivo, mice. Particulars: paclitaxel 15 mg/kg IV BIW×4. The protocol:
(§2) In vivo anti-tumor activity of 3424 was evaluated using GFP-expressing cancer cell lines in an orthotopic liver cancer model (HepG2) and a subcutaneous lung cancer model (H460) CDX models at AntiCancer, Inc (Beijing, China). Female athymic nude mice (6 weeks; BALB/c-nu, Beijing HFK Bioscience Co., Ltd., Beijing, China) were used in the studies. Each mouse was implanted with a HepG2-GFP tumor chunk (˜1 mm^3 in diameter) in the right lobe of the liver for tumor development or inoculated subcutaneously with H460-GFP tumor chunk (˜1 mm^3 in diameter). About 3-10 days later, whole mouse body scan was performed using FluorVivo Model-100 fluorescence imager (INDEC Biosystems, Inc., Los Altos, CA). Mice with similar fluorescent areas were selected and randomly grouped. Both cell lines expressed high level of AKR1C3. Prodrug 3424 was dosed intravenously (IV) at 1.25, 2.5 mg/kg or 5 mg/kg Q7D×2 for the HepG2 orthotopic model or at 0.625, 1.25 or 2.5 mg/kg for the H460 xenograft model with a regimen of Q7D×2, 1 week off, then Q7D×2 again. Sorafenib was used as the positive control in the HepG2 model and was dosed orally at 30 mg/kg with a regimen of QD×5×7 cycles. Taxol was used as the positive control in the H460 model and was administered at 15 mg/kg IV with a regimen of BIW×4. During the experiments, mice were observed daily and body weight was measured twice a week. Tumor burden was monitored twice a week either by caliper measurement (H460) or FluorVivo fluorescence imager (H460-GFP and HepG2-GFP).

The test system of assay [4] is HepG2 orthotopic xenograft. The format is in vivo, mice. Particulars: sorafenib 30 mg/kg orally, QD×5×7 cycles; no statistical significance. How it is done: as §2

Where two headings read alike, the source gives them in different places.

Take `C[C@@H](OP(=O)(N1CC1)N1CC1)c1ccc([N+](=O)[O-])c(Oc2cccc(C(=O)N(C)C)c2)c1` [Compound 3423, (R)-1-(3-(3-N,N-dimethylaminocarbonyl)phenoxyl-4-mtrophenyl)-1-ethyl-N,N′-bis(ethylene)phosphoramidate]: at recombinant human AKR1C3, the Kcat stood at 0.012 ± 0.00067 s⁻¹. Moreover, the Km on recombinant human AKR1C3 (read-out: Km) worked out at 12.9 ± 1.71 µM. For the same compound, in the assay on H460 cells [1], the IC50 was 5 nM. The compound `CC(OP(=O)(N1CC1)N1CC1)c1ccc([N+](=O)[O-])c(Oc2cccc(C(=O)N(C)C)c2)c1` (racemic) [Compound 2870, 1-(3-(3-N,N-dimethylaminocarbonyl)phenoxyl-4-mtrophenyl)-1-ethyl-N,N′-bis(ethylene)phosphoramidate] displayed a tail moment in the assay on H460 cells [2] (2870 at three concentrations, 2 hours, then bleomycin, decreased from 36, concentration-dependent DNA cross-linking) of 1.6. Besides, the IC50 in the assay with H460 cells [1] stood at 4 nM. Consider `C[C@]12CCC(=O)C=C1CC[C@@H]1[C@@H]2CC[C@]2(C)C(=O)CC[C@@H]12` [4-Androstenedione, 4-androstenedione, reference compound], for which, on recombinant human AKR1C3, the Kcat was 0.0012 ± 0.00017 s⁻¹ and the Km is 1.98 ± 0.43 µM.

Take `C[C@]12CCC(=O)C[C@@H]1CC[C@@H]1[C@@H]2CC[C@]2(C)[C@@H](O)CC[C@@H]12` [5^α-DHT, dihydrotestosterone, reference compound]: at recombinant human AKR1C3, the Kcat was 0.002 ± 0 s⁻¹ and the Km stood at 10.2 ± 0.62 µM. On to `O=c1[nH]cc(F)c(=O)[nH]1` [Compound 5-FU, 5-fluorouracil, reference compound], for which the anti-tumor activity result with SNU-16 xenograft is given as “no anti-tumor activity”. In turn, `CCN(CC)CCNC(=O)c1c(C)[nH]c(/C=C2\C(=O)Nc3ccc(F)cc32)c1C` [sunitinib, reference compound] showed a TGI in the assay on A498 xenograft (sunitinib 25 mg/kg daily oral gavage) of 52%.

`Nc1ccn([C@@H]2O[C@H](CO)[C@@H](O)C2(F)F)c(=O)n1` [gemcitabine, reference compound]: the TGI in the assay with A498 xenograft (gemcitabine 80 mg/kg weekly IP for 4 doses) came out at 19%. Compound `CC(=O)O[C@H]1C(=O)[C@@]2(C)[C@H]([C@H](OC(=O)c3ccccc3)[C@]3(O)C[C@H](OC(=O)[C@H](O)[C@@H](NC(=O)c4ccccc4)c4ccccc4)C(C)=C1C3(C)C)[C@]1(OC(C)=O)CO[C@@H]1C[C@@H]2O` [paclitaxel, reference compound] gave a TGI in assay [3] of 64%. For the compound `CNC(=O)c1cc(Oc2ccc(NC(=O)Nc3ccc(Cl)c(C(F)(F)F)c3)cc2)ccn1` [Sorafenib, reference compound], the “tumor growth reduction (TGI)” value in assay [4] is 52.1%.

In the assay on H460 cells [2] (bleomycin used to induce DNA strand breaks (20 μmol/L, 1 hour)), bleomycin [reference compound] came in with a tail moment of 35.
